Measured values taken from publication PMC10398712 (Journal of medicinal chemistry, 2023).
Like-named read-outs stand apart in the source and are kept apart here. Marks after values point to notes of the source that are not given here. Blank lines part the entries; values can stand above or below the compound they belong to. Residues, ends and D or L forms follow the SMILES beside them. *: point of attachment. Cbz = O=C(OCc1ccccc1)*

Experiments:
CRBN = conditions: cited from earlier work
[1] = cited from earlier work
CRBN-DDB1 complex = CRBN-DDB1 complex (Homo sapiens, UniProt Q96SW2); test: fluorescence polarization; assay type: binding; conditions: for displacement of fluorescence probe (relative binding): single concentration of 1 μM, tested three times
[2] = ring opening hydrolysis stability in buffer with different pHs; assay type: physicochemical; conditions: for pH=1.0, ring opening hydrolysis, percent compound remaining: pH 1.0, after 24 h; for pH=7.4, ring opening hydrolysis, percent compound remaining: pH 7.4 buffer, after 24 h, 37°C
IKZF3 = test: Western blot of IKZF3 in MV4; assay type: cell-based, human; conditions: MV4;11 cells, 10 and 1 μM, 24 h
GSPT1 = test: Western blot of GSPT1 in MV4; assay type: cell-based, human; conditions: MV4;11 cells, 10 and 1 μM, 24 h
IKZF1 = test: Western blot of IKZF1 in MV4; assay type: cell-based, human; conditions: MV4;11 cells, 10 and 1 μM, 24 h
MV4;11 cells [3] = test: AlamarBlue cell viability; assay type: cell-based, human; conditions: 72 h
BRD4 = BRD4 (Homo sapiens, UniProt O60885); test: Western blot of BRD4; conditions: for effect of pretreatment on BRD4 degradation induced by 13: pretreated 1 h, then 13 for 3 h; for degradation of BRD4: 24 h
caspase 3 cleavage = test: Western blot of caspase 3 and cleaved caspase 3 in MV4; conditions: MV4;11 cells, 10 nM to 10 μM, 24 h
MV4;11 cells [4] = test: flow cytofluorimetric apoptosis analysis; assay type: cell-based, human; conditions: 48 h
MV4;11 cells [5] = test: flow cytofluorimetric cell cycle analysis; assay type: cell-based, human; conditions: 48 h
[6] = in human blood; cited from earlier work
[7] = in-vivo in humans; cited from earlier work

Sequence of CRBN-DDB1 complex (Q96SW2 whole entry): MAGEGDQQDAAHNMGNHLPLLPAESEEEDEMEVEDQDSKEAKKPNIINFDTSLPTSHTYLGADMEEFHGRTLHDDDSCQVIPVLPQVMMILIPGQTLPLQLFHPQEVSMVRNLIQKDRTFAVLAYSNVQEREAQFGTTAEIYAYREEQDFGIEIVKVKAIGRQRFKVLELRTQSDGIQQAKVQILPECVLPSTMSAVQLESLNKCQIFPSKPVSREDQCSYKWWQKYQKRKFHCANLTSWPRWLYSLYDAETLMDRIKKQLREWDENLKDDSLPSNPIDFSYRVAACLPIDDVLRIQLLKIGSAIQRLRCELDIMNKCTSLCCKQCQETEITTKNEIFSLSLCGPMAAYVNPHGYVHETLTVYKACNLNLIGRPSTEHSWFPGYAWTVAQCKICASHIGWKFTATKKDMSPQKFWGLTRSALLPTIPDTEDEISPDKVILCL
Sequence of CRBN-DDB1 complex (Q16531 whole entry partner): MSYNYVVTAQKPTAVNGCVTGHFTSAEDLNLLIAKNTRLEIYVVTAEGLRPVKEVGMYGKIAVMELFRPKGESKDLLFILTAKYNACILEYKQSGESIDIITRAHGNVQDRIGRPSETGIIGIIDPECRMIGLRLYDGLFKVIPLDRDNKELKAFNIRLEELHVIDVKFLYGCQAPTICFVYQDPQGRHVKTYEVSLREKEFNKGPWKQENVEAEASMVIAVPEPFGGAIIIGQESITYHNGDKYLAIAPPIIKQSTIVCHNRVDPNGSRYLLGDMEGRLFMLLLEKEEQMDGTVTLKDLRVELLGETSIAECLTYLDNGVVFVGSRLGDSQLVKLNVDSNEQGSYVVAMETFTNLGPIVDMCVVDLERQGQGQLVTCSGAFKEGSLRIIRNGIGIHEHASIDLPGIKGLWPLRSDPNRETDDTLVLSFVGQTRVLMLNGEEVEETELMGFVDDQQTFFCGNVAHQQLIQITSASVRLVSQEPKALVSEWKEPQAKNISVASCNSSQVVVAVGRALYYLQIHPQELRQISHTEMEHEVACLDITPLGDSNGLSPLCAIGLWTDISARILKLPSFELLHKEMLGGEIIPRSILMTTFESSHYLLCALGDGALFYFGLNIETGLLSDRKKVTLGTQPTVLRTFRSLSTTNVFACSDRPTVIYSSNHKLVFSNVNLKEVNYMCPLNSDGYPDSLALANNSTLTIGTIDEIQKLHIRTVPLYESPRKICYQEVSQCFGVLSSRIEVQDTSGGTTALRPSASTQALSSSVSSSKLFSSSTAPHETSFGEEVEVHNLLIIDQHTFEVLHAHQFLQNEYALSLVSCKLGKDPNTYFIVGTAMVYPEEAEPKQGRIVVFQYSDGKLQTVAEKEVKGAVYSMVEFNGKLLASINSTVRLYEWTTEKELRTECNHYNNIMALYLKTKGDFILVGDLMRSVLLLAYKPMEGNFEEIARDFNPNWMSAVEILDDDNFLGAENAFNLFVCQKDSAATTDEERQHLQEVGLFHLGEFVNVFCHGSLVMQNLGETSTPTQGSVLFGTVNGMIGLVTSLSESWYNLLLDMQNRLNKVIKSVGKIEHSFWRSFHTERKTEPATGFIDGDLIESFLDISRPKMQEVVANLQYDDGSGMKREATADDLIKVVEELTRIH

SMILES: O=C1CC[C@H](N2C(=O)c3ccccc3C2=O)C(=O)N1 (single isomer, unassigned) [(S)-enantiomeric thalidomide]
binding affinity to CRBN relative to the (R)-enantiomer (CRBN): at least 10 fold

SMILES: [2H]C1(N2C(=O)c3ccccc3C2=O)CCC(=O)NC1=O (stereo not drawn) [Compound 1D]
racemization relative to thalidomide [1]: about five times slower than thalidomide

displacement of fluorescence probe (relative binding) (CRBN-DDB1 complex): almost completely lost the binding
SMILES: O=C1CCN(c2ccccc2O)C(=O)N1 [Compound 3A, 1-(2-hydroxyphenyl)dihydropyrimidine-2,4(1H,3H)-dione]

increase of affinity by ortho-Me relative to parent PDHU 2 (CRBN-DDB1 complex; FP assay): about 2.5 times
SMILES: Cc1ccccc1N1CCC(=O)NC1=O [Compound 3B, 1-(o-tolyl)dihydropyrimidine-2,4(1H,3H)-dione]

displacement of fluorescence probe (relative binding) (CRBN-DDB1 complex): decreased the binding
SMILES: COc1ccccc1N1CCC(=O)NC1=O [Compound 3C, 1-(2-methoxyphenyl)dihydropyrimidine-2,4(1H,3H)-dione]

pH=1.0, ring opening hydrolysis, percent compound remaining [2]: >99^[g] %
pH=7.4, ring opening hydrolysis, percent compound remaining [2]: >99%
SMILES: Cc1c(C#CCNC(=O)OC(C)(C)C)cccc1N1CCC(=O)NC1=O [Compound 6F, tert-butyl (3-(3-(2,4-dioxotetrahydropyrimidin-1(2H)-yl)-2-methylphenyl)prop-2-yn-1-yl)carbamate]
degradation of IKZF3 (IKZF3): do not induce the degradation
degradation of GSPT1 (GSPT1): do not induce the degradation
degradation of IKZF1 (IKZF1): do not induce the degradation

pH=1.0, ring opening hydrolysis, percent compound remaining [2]: >99%
pH=7.4, ring opening hydrolysis, percent compound remaining [2]: >99%
SMILES: Cc1c(OCC(=O)N2CCCCC2)cccc1N1CCC(=O)NC1=O [Compound 9, 1-(2-methyl-3-(2-oxo-2-(piperidin-1-yl)ethoxy)phenyl)dihydropyrimidine-2,4(1H,3H)-dione]
anti-proliferation activity (MV4;11 cells [3]; at up to 100 μM): did not show any anti-proliferation activity
effect of pretreatment on BRD4 degradation induced by 13 (BRD4; MV4;11 cells): abolished the BRD4 degradation induced by 13
degradation of IKZF3 (IKZF3): do not induce the degradation
degradation of GSPT1 (GSPT1): do not induce the degradation
degradation of IKZF1 (IKZF1): do not induce the degradation

pH=1.0, ring opening hydrolysis, percent compound remaining [2]: >99%
pH=7.4, ring opening hydrolysis, percent compound remaining [2]: >99%
SMILES: CCNC(=O)COc1cccc(N2CCC(=O)NC2=O)c1C [Compound 10, 2-(3-(2,4-dioxotetrahydropyrimidin-1(2H)-yl)-2-methylphenoxy)-N-ethylacetamide]
degradation of IKZF3 (IKZF3): do not induce the degradation
degradation of GSPT1 (GSPT1): do not induce the degradation
degradation of IKZF1 (IKZF1): do not induce the degradation

pH=1.0, ring opening hydrolysis, percent compound remaining [2]: >99%
pH=7.4, ring opening hydrolysis, percent compound remaining [2]: >99%
SMILES: CC(=O)NCCC#Cc1cccc(N2CCC(=O)NC2=O)c1C [Compound 11, N-(4-(3-(2,4-dioxotetrahydropyrimidin-1(2H)-yl)-2-methylphenyl)but-3-yn-1-yl)acetamide]
degradation of IKZF3 (IKZF3): do not induce the degradation
degradation of GSPT1 (GSPT1): do not induce the degradation
degradation of IKZF1 (IKZF1): do not induce the degradation

SMILES: Cc1sc2c(c1C)C(c1ccc(Cl)cc1)=N[C@@H](CC(=O)NCCCC#Cc1cccc(N3CCC(=O)NC3=O)c1C)c1nnc(C)n1-2 [Compound 12C, (S)-2-(4-(4-chlorophenyl)-2,3,9-trimethyl-6H-thieno[3,2-f][1,2,4]triazolo[4,3-a][1,4]diazepin-6-yl)-N-(5-(3-(2,4-dioxotetrahydropyrimidin-1(2H)-yl)-2-methylphenyl)pent-4-yn-1-yl)acetamide]
degradation of BRD4 (BRD4; in MV4;11 and LNCAP, 1.0 and 0.1 μM): showed obviously BRD4 degradation activity

SMILES: Cc1sc2c(c1C)C(c1ccc(Cl)cc1)=N[C@@H](CC(=O)NC1CCN(C(=O)COc3cccc(N4CCC(=O)NC4=O)c3C)CC1)c1nnc(C)n1-2 [Compound 13, (S)-2-(4-(4-chlorophenyl)-2,3,9-trimethyl-6H-thieno[3,2-f][1,2,4]triazolo[4,3-a][1,4]diazepin-6-yl)-N-(1-(2-(3-(2,4-dioxotetrahydropyrimidin-1(2H)-yl)-2-methylphenoxy)acetyl)piperidin-4-yl)acetamide]
caspase 3 cleavage (caspase 3 cleavage): successful in inducing caspase 3 cleavage
cell apoptosis (MV4;11 cells [4]): induced cell apoptosis in a dose-dependent manner
cell cycle effect (MV4;11 cells [5]): induce G1 phase arrest, decrease the cell population in S phase

SMILES: Cc1sc2c(c1C)C(c1ccc(Cl)cc1)=N[C@@H](CC(=O)NC1CCN(C(=O)COc3cccc(N4CCC(=O)N(C)C4=O)c3C)CC1)c1nnc(C)n1-2 [Compound 13NT, (S)-2-(4-(4-chlorophenyl)-2,3,9-trimethyl-6H-thieno[3,2-f][1,2,4]triazolo[4,3-a][1,4]diazepin-6-yl)-N-(1-(2-(2-methyl-3-(3-methyl-2,4-dioxotetrahydropyrimidin-1(2H)-yl)phenoxy)acetyl)piperidin-4-yl)acetamide]
degradation of BRD4 (BRD4; MV4;11 cells, several different concentrations): no degradation activity of BRD4 was observed

SMILES: Cc1sc2c(c1C)C(c1ccc(Cl)cc1)=N[C@@H](CC(=O)OC(C)(C)C)c1nnc(C)n1-2 [JQ1, reference compound]
anti-proliferation activity (MV4;11 cells [3]): weaker anti-proliferation activity than 13, but higher activity than compound 13NT

pH=1.0, ring opening hydrolysis, percent compound remaining [2]: >99%
pH=8.8, ring opening hydrolysis, percent compound remaining ([2]; pH 8.8, after 24 h): 0%
SMILES: Nc1cccc2c1CN(C1CCC(=O)NC1=O)C2=O (stereo not drawn) [Lenalidomide, lenalidomide, reference compound]

SMILES: CC(C)C[C@@H](C=O)NC(=O)[C@H](CC(C)C)NC(=O)[C@H](CC(C)C)NC(=O)OCc1ccccc1 [MG132, reference compound] (Cbz-Leu-Leu-Leu-aldehyde)
effect of pretreatment on BRD4 degradation induced by 13 (BRD4; MV4;11 cells): abolished the BRD4 degradation induced by 13

SMILES: NS(=O)(=O)OC[C@@H]1C[C@@H](n2ccc3c(N[C@H]4CCc5ccccc54)ncnc32)C[C@@H]1O [MLN4924, reference compound]
effect of pretreatment on BRD4 degradation induced by 13 (BRD4; MV4;11 cells): abolished the BRD4 degradation induced by 13

SMILES: O=C1CCC(N2C(=O)c3ccccc3C2=O)C(=O)N1 (stereo not drawn) [thalidomide]
racemization half-life [6]: ~ 2.0 h
racemization half-life [7]: ~ 5.0 h
